This is an account of results in US20180353460A1, “METHODS OF TREATING UROLOGICAL DISORDERS USING SARMs” (priority 2014, published 2018).

Where two headings read alike, the source gives them in different places.

For assay [1], the system named is levator ani muscle. Description: Hershberger assays of compounds H-1 to H-4. Format: in vivo, rat. To be noted: calculated in Win Non-Lin. How it is done: FIG. 3 depicts results of Hershberger assays of compounds of the invention as described in Example 17. AUC is area under the concentration-time curve.
Hershberger assays as described above for Formulas VIII-XIV were also performed on compounds H-1, H-2, H-3, & H-4, as reported in FIG. 3, along with AR binding data in some cases in Table 11. The reported Emax values were calculated in Win Non-Lin®.

A further assay concerns the target T1, AR (Homo sapiens, UniProt P10275).
T1 sequence (P10275 1-920): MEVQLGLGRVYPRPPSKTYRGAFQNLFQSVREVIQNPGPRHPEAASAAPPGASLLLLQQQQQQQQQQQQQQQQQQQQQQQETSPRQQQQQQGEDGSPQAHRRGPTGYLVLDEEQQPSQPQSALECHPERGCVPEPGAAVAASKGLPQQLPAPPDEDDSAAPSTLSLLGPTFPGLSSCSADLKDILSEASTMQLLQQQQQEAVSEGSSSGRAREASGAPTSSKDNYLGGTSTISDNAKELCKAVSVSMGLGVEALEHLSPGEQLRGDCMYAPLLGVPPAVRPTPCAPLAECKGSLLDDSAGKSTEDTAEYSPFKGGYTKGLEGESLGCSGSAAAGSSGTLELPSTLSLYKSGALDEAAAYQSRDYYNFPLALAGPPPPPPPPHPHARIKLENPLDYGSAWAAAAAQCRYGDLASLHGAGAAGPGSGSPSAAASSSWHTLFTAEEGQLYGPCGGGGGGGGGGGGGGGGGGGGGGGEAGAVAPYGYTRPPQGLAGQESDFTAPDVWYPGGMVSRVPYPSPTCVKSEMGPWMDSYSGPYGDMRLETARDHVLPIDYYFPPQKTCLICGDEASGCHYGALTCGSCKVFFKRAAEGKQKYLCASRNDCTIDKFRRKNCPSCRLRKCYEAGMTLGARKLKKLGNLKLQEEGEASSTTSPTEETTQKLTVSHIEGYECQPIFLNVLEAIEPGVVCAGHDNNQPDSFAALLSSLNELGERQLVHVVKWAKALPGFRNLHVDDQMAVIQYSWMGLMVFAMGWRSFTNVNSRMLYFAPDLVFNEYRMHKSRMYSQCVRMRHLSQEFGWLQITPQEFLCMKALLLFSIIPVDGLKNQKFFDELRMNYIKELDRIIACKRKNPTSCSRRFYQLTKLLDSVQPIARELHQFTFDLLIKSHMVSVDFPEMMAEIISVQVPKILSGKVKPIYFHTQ
Description: biochemical. Format: binding.

In assay [2] the test system is female rats with experimentally induced stress urinary incontinence. To be noted: rat models of SUI; cited from earlier work.
For assay [3], the system named is prostate, seminal vesicles and levator ani muscle. The assay can be described thus: Androgenic and anabolic activity in castrated immature male rats, subcutaneous osmotic pumps, 14 days. Format: in vivo, rat. How it is done: Immature male Sprague-Dawley rats, weighing 90 to 100 g, were purchased from Harlan Biosciences (Indianapolis, Ind.). The animals were maintained on a 12 hour light-dark cycle with food and water available ad libitum.
Rats were randomly distributed into treatment groups groups. One day prior to the start of drug treatment, animals were individually removed from the cage, weighed and anesthetized with an intraperitoneal dose of ketamine/xylazine (87/13 mg/kg; approximately 1 mL per kg). When appropriately anesthetized (i.e., no response to toe pinch), the animals' ears were marked for identification purposes. Animals were then placed on a sterile pad and their abdomen and scrotum washed with betadine and 70% alcohol. The testes were removed via a midline scrotal incision, with sterile suture being used to ligate supra-testicular tissue prior to surgical removal of each testis. The surgical wound site was closed with sterile stainless steel wound clips, and the site cleaned with betadine. The animals were allowed to recover on a sterile pad (until able to stand) and then returned to their cage.
Twenty-four hours later, animals were re-anesthetized with ketamine/xylazine, and an Alzet osmotic pump(s) (model 2002) was placed subcutaneouly in the scapular region. In this instance, the scapular region was shaved and cleaned (betadine and alcohol) and a small incision (1 cm) made using a sterile scalpel. The osmotic pump was inserted and the wound closed with a sterile stainless steel wound clip. Animals were allowed to recover and were returned to their cage. Osmotic pumps contained the appropriate treatment dissolved in polyethylene glycol 300 (PEG300). Osmotic pumps were filled with the appropriate solution one day prior to implantation. Animals were monitored daily for signs of acute toxicity to drug treatment (e.g., lethargy, rough coat).
After 14 days of drug treatment, rats were anesthetized with ketamine/xylazine. Animals were then sacrificed by exsanguinations under anesthesia. A blood sample was collected by venipuncture of the abdominal aorta, and submitted for complete blood cell analysis. A portion of the blood was placed in a separate tube, centrifuged at 12,000 g for 1 minute, and the plasma layer removed and frozen at −20° C. The ventral prostates, seminal vesicles, levator ani muscle, liver, kidneys, spleen, lungs, and heart were removed, cleared of extraneous tissue, weighed, and placed in vials containing 10% neutral buffered formalin. Preserved tissues were sent for histopathological analysis.
For data analysis, the weights of all organs were normalized to body weight, and analyzed for any statistical significant difference by single-factor ANOVA. The weights of prostate and seminal vesicle were used as indexes for evaluation of androgenic activity, and the levator ani muscle weight was used to evaluate the anabolic activity.

Assay [4] relates to levator ani muscle. The assay can be described thus: Levator ani muscle weight in castrated rats treated subcutaneously for 14 days. To be noted: castrated Sprague Dawley rats, subcutaneous, 3 mg/day. In kind it is in vivo, rat. An excerpt: At sacrifice, organs were weighed and expressed as raw organ weights. Values are expressed as average±S.D. Increased size and strength of pelvic floor muscles is one mechanism by which SARMs are believed to affect UI.
At sacrifice, organs were weighed and expressed as raw organ weights. Values are expressed as average±S.D.

The mark [5] stands for this setting: compared with testosterone propionate.
Where [6] appears, read: castrated rats, 0.10 mg/day, 14 days.
Where [7] appears, read: castrated rats, 0.50 mg/day, 14 days.
Where [8] appears, read: castrated rats, 0.75 mg/day, 14 days.
Setting [9] is: castrated rats, 1.00 mg/day, 14 days.

`C[C@](O)(COc1ccc(Br)cc1)C(=O)Nc1ccc([N+](=O)[O-])c(C(F)(F)F)c1` [Compound H-3]: the “Emax in levator ani muscle” value in the assay with levator ani muscle [1] is 64 ± 4 % of intact control. Also, the Ki at AR (read-out: Ki) amounted to 13 ± 2 nM.

For `C[C@]12CC[C@H]3[C@@H](CCC4=CC(=O)CC[C@@]43C)[C@@H]1CC[C@@H]2O` [Testosterone, testosterone], the “leak point pressures and size of myofibers” value in assay [2] is “improve leak point pressures and significantly increase the size of myofibers”.

Regarding `C[C@](O)(COc1ccc(Cl)cc1)C(=O)Nc1ccc(C#N)c(C(F)(F)F)c1` [Compound XI, (S)—N-(4-Cyano-3-(trifluoromethyl)phenyl)-3-(4-chlorophenoxy)-2-hydroxy-2-methylpropanamide], in assay [3] (castrated rats, 14 days), the “dose able to maintain levator ani muscle weight of castrated animals at the level of intact animals” value was 0.3 mg/day. Further, the “weights of prostate, seminal vesicle and levator ani muscle” value in assay [3] (castrated rats, 14 days, FIG. 2) was “dose-dependent increases in prostate, seminal vesicle and levator ani muscle weights”. For the same compound, in assay [3] (setting [5]), the “potency and intrinsic activity in increasing the weight of levator ani muscle” value is “greater potency and intrinsic activity”; the “potency and intrinsic activity in increasing the weights of prostate and seminal vesicle” value was “lower potency and intrinsic activity”. For the same compound, at AR (read-out: binding affinity), the Ki was 3.4 ± 0.08 nM.

Regarding `C[C@](O)(COc1ccc(F)cc1)C(=O)Nc1ccc(C#N)c(C(F)(F)F)c1` [Compound X, (S)—N-(4-Cyano-3-(trifluoromethyl)phenyl)-3-(4-fluorophenoxy)-2-hydroxy-2-methylpropanamide], the “levator ani muscle weight” value in the assay on levator ani muscle [4] is given as “elicits hypertrophy of the levator ani muscle”. Moreover, the “Levator Ani organ weight (Mean ± S.D.)” value is listed as 54.9 ± 5.77 % of intact in assay [3] (setting [6]), 55.0 ± 9.23 % of intact in assay [3] (setting [7]), 68.9 ± 8.46 % of intact in assay [3] (setting [8]) and 75.2±9.51 % of intact in assay [3] (setting [9]). The “Prostate organ weight (Mean ± S.D.)” value is 6.4 ± 0.82 % of intact in assay [3] (setting [6]), 6.2 ± 0.56 % of intact in assay [3] (setting [7]), 7.6 ± 0.74 % of intact in assay [3] (setting [8]) and 8.7±1.39 % of intact in assay [3] (setting [9]). Further, the “Seminal Vesicles organ weight (Mean ± S.D.)” value in assay [3] (setting [6]) is reported as 8.8 ± 1.18 % of intact; in assay [3] (setting [7]), 9.3 ± 1.57 % of intact; in assay [3] (setting [8]) it was 9.8 ± 3.65 % of intact; in assay [3] (setting [9]), 10.7±0.91 % of intact. At AR (read-out: binding affinity), the Ki came out at 3.3 ± 0.08 nM.
